The target in data set [1] is Poly [ADP-ribose] polymerase 2 (Homo sapiens, UniProt Q9UGN5). In words: Inhibition of recombinant PARP2 (unknown origin) incubated for 45 mins in presence of biotinylated-NAD+ by ELISA.
In data set [2] the target is Bromodomain-containing protein 2 (Homo sapiens, UniProt P25440). In words: Inhibition of recombinant BRD2 BD1 (unknown origin) incubated for 120 mins by TR-FRET assay.
The target in data set [3] is Bromodomain-containing protein 3 (Homo sapiens, UniProt Q15059). In words: Inhibition of recombinant BRD3 BD1 (unknown origin) incubated for 120 mins by TR-FRET assay.
The test system of data set [4] is Mus musculus. In words: Inhibition of homologous recombinant repair in human SW1990 cells xenografted in BALB/c mouse assessed as reduction in olaparib-induced Rad51 expression at 15 mg/kg, ip after 4 days by immunohistochemical analysis. Conditions: time 4.0 day. The data set is classed as functional, organism-based.
The subject of data set [5] is Mus musculus. In words: Inhibition of homologous recombinant repair in human SW1990 cells xenografted in BALB/c mouse assessed as reduction in olaparib-induced BRCA1 expression at 15 mg/kg, ip after 4 days by immunohistochemical analysis. The conditions noted are these: time 4.0 day. The data set is classed as functional, organism-based.
Data set [6] has as its system SW1990. The data set can be described thus: Inhibition of colony formation in human SW1990 cells at 1 uM after 14 days by crystal violet staining based microscopic analysis. The data set is classed as functional, cell-based. Conditions: time 14.0 day.
The subject of data set [7] is Mus musculus. In words: In vivo inhibition of BRD4 expression in human […] cells xenografted in BALB/c mouse at 45 mg/kg, ip administered for 28 consecutive days by Western blot analysis. The data set is classed as functional, organism-based. Conditions: time 28.0 day.
The test system of data set [8] is SW1990. The data set can be described thus: Induction of apoptosis in human SW1990 cells assessed as early apoptotic cells at 1 uM after 4 days by Annexin V-FITC and propidium iodide staining based flow cytometry (reference value: […]%). It is filed as functional. The conditions noted are these: time 4 day.
Data set [9] deals with SW1990. In words: Induction of apoptosis in human SW1990 cells assessed as necrotic cells at 1 uM after 4 days by Annexin V-FITC and propidium iodide staining based flow cytometry (reference value: 1.89%). The data set is classed as functional. Conditions: time 4 day.
Data set [10] deals with SW1990. In words: Induction of apoptosis in human SW1990 cells assessed as late apoptotic cells at 2 uM after 4 days by Annexin V-FITC and propidium iodide staining based flow cytometry (reference value: 6.22%). The data set is classed as functional. The conditions noted are these: time 4 day.
Data set [11] relates to SW1990. The data set can be described thus: Induction of cell cycle arrest in human SW1990 cells assessed as accumulation of cells at S phase at 2 uM incubated for 4 days by propidium iodide staining based flow cytometry (reference value: 29.32%). The data set is classed as functional. Conditions: time 4 day.
Data set [12] concerns Mus musculus. The data set can be described thus: Effect on cell cycle progression in human SW1990 cells xenografted in BALB/c mouse assessed as reduction in CDK6 expression at 45 mg/kg, ip after 4 days by Western blot analysis. The data set is classed as functional, organism-based. Conditions: time 4.0 day.
Data set [13] has as its system Mus musculus. The data set can be described thus: Effect on cell cycle progression in human SW1990 cells xenografted in BALB/c mouse assessed as reduction in PLK1 expression at 45 mg/kg, ip after 4 days by Q-PCR analysis. It is filed as functional, organism-based. Conditions: time 4.0 day.
The subject of data set [14] is SW1990. In words: Effect on cell cycle progression in human SW1990 cells assessed as reduction in CDK6 expression at 1 to 2 uM after 4 days by Western blot analysis. It is filed as functional, cell-based. The conditions noted are these: dose 1-2 µM, time 4.0 day.
Data set [15] deals with SW1990. The data set can be described thus: Effect on cell cycle progression in human SW1990 cells assessed as reduction in E2F2 expression at 1 to 2 uM after 4 days by Western blot analysis. The data set is classed as functional, cell-based. Conditions: dose 1-2 µM, time 4.0 day.
For data set [16], the system named is SW1990. The data set can be described thus: Induction of autophagy in human SW1990 cells assessed as reduction in p62 expression at 1 to 2 uM incubated for 4 days by immunofluorescence assay. It is filed as functional, cell-based. The conditions noted are these: dose 1-2 µM, time 4.0 day.
Data set [17] deals with SW1990. The data set can be described thus: Induction of autophagy in human SW1990 cells assessed as reduction in p62 expression at 4 uM incubated for 4 days by immunofluorescence assay. It is filed as functional, cell-based. The conditions noted are these: time 4.0 day.
Data set [18] concerns Mus musculus. In words: Toxicity in BALB/c mouse xenografted with human SW1990 cells assessed as heart damage at 15 mg/kg, ip administered for 28 consecutive days in presence of 45 mg/kg Olaparib. The data set is classed as organism-based. The conditions noted are these: in vivo, 672 h, time 28 day.
Data set [19] deals with Mus musculus. In words: In vivo inhibition of BRD4 expression in human SW1900 cells xenografted in BALB/c mouse assessed as reversal of Olaparib-induced BRD4 accumulation at 15 mg/kg, ip administered for 28 consecutive days in presence of 45 mg/kg Olaparib by immunohistochemical analysis. The data set is classed as functional, organism-based. The conditions noted are these: time 28.0 day.

Data set [20] relates to Mus musculus. The data set can be described thus: In vivo inhibition of PARP1 expression in human […] cells xenografted in BALB/c mouse assessed as reversal of Olaparib-induced PARP1 accumulation at 15 mg/kg, ip administered for 28 consecutive days in presence of 45 mg/kg Olaparib by Q-PCR analysis. Conditions: time 28.0 day. It is filed as functional, organism-based.

Data set [21] relates to Mus musculus. The data set can be described thus: In vivo inhibition of BRD4 expression in human SW1900 cells xenografted in BALB/c mouse assessed as reversal of Olaparib-induced BRD4 accumulation at 15 mg/kg, ip administered for 28 consecutive days in presence of 45 mg/kg Olaparib by Q-PCR analysis. It is filed as functional, organism-based. Conditions: time 28.0 day.
Data set [22] has as its system SW1990. The data set can be described thus: Effect on cell cycle progression in human SW1990 cells assessed as reduction in Olaparib-induced CCND1 expression at 1 uM after 4 days in presence of Olaparib by Western blot analysis. It is filed as functional, cell-based. The conditions noted are these: time 4.0 day.
For data set [23], the system named is SW1990. The data set can be described thus: Inhibition of homologous recombinant repair in human SW1990 cells assessed as reduction in Olaparib-induced BRCA1 expression at 1 uM after 4 days in presence of Olaparib by Q-PCR analysis. It is filed as functional, cell-based. The conditions noted are these: time 4.0 day.
The test system of data set [24] is SW1990. In words: Inhibition of homologous recombinant repair in human SW1990 cells assessed as reduction in FOXM1 expression at 4 uM after 4 days by Q-PCR analysis. It is filed as functional, cell-based. The conditions noted are these: time 4.0 day.
Data set [25] deals with SW1990. The data set can be described thus: Inhibition of homologous recombinant repair in human SW1990 cells assessed as reduction in BRCA1 expression at 4 uM after 4 days by Q-PCR analysis. The data set is classed as functional, cell-based. The conditions noted are these: time 4.0 day.

The source made the active and inactive calls. No cut-off for these calls is given here.

Chain of Bromodomain-containing protein 3 (Q15059 whole entry): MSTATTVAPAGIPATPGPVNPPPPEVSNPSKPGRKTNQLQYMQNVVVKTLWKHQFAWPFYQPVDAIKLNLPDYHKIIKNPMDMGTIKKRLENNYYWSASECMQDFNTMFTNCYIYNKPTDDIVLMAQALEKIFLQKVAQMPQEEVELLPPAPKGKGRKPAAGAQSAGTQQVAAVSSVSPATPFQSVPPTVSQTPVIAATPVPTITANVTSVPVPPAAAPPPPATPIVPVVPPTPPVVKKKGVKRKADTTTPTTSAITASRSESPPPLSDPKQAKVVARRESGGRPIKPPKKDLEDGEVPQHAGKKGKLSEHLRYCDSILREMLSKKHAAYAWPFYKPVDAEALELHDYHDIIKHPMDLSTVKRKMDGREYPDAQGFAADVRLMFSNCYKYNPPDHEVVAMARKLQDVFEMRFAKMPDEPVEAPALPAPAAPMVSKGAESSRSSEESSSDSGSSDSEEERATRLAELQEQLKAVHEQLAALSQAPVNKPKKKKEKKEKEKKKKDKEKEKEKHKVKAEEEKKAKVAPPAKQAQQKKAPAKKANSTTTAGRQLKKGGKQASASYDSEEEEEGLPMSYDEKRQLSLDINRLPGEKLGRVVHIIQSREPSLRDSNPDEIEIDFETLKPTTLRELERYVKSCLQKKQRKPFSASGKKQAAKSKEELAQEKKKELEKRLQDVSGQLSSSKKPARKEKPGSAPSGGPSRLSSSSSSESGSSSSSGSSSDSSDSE
Chain of Bromodomain-containing protein 2 (P25440 whole entry): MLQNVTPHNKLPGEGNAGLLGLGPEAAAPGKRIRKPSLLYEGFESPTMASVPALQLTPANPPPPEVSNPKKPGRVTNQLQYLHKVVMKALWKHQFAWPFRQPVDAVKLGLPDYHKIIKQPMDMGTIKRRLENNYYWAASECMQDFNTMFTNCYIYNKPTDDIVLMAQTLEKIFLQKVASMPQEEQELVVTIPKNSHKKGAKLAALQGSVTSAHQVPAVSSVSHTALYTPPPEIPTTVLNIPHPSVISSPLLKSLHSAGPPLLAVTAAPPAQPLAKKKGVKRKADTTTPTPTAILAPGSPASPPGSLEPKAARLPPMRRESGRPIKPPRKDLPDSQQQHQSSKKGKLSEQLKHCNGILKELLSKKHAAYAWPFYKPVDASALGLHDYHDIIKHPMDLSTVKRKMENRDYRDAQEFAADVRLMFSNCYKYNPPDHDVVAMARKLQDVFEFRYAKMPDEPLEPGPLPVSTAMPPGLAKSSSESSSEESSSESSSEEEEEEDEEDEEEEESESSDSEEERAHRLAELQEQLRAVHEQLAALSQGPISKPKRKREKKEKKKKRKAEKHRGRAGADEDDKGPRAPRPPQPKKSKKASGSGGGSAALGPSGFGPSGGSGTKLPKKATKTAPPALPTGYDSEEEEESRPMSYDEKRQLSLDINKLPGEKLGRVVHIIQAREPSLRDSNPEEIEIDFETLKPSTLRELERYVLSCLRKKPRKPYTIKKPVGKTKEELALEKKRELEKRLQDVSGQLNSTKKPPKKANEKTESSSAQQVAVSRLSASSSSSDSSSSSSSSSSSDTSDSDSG
Chain of Poly [ADP-ribose] polymerase 2 (Q9UGN5 whole entry): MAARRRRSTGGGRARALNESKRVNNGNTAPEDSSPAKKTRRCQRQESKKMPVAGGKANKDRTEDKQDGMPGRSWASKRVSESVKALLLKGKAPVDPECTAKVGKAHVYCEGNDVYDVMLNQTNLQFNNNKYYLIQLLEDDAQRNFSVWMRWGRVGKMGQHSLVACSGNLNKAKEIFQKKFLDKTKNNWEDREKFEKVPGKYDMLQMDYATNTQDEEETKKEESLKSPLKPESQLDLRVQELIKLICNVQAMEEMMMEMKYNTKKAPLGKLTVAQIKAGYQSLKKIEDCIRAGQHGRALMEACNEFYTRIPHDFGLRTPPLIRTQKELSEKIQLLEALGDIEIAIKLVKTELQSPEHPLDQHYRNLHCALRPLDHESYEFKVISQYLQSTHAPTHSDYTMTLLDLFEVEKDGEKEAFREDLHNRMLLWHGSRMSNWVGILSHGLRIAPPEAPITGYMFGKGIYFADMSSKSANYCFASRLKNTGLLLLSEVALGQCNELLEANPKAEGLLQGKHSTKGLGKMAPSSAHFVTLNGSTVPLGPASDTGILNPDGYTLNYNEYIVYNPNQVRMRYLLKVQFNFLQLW

Turning to `CC[C@@H]1C(=O)N(C)c2cnc(N(C)c3ccc(-c4nc5c(C(N)=O)cccc5[nH]4)cc3OC)nc2N1C1CCCC1`, the IC50 in [1] stood at 4.7 nM; in data set [2], 381 nM; in data set [3] it was 166 nM. Moreover, the inhibition result in the data set on Mus musculus [4], in the data set with Mus musculus [5] and with SW1990 [6] was “Active” each time. Moreover, the result in the data set on Mus musculus [7], in the data set with Mus musculus [12], in the data set on Mus musculus [13], in the data set with SW1990 [14], in the data set on SW1990 [15] and in the data set with SW1990 [16] was Active. The Activity stood at 1.71% in the data set on SW1990 [8], 3.41% with SW1990 [9], 40.3% with SW1990 [10] and 9.21% in the data set with SW1990 [11].
`Cc1sc2c(c1C)C(c1ccc(Cl)cc1)=N[C@@H](CC(=O)OC(C)(C)C)c1nnc(C)n1-2`: the outcome with SW1990 [17], in the data set with Mus musculus [19], in the data set on Mus musculus [20], in the data set with Mus musculus [21] and with SW1990 [22] was Active. The Activity entry with Mus musculus [18] is “Non-Toxic”. The inhibition entry in the data set on SW1990 [23], in the data set on SW1990 [24] and in the data set with SW1990 [25] was “Active” throughout.

The values above are taken from ChEMBL document CHEMBL5053549, “Discovery of Potent and Novel Dual PARP/BRD4 Inhibitors for Efficient Treatment of Pancreatic Cancer” (J Med Chem, 2021).
